# In US6949669B2, “Organic compounds” (Syngenta Crop Protection, Inc., priority 2000, dated 2005):
# How the values were obtained:
# Assay type in all cases: in vivo
# Amaranthus [1] = experiment: Post-emergence herbicidal action (Example B2); set-up: key: 1=total damage; 9=no action; details: 1 kg/ha, post-emergence at 2- to 3-leaf stage, evaluated 2 to 3 weeks later, rating scale 1-9 (1=total damage, 9=no action)
# Source text: (§1) Post-emergence Herbicidal Action Monocot and dicot test plants are sown in standard soil in plastic pots. At the 2- to 3-leaf stage, the test plants are sprayed with test substances as an aqueous suspension [prepared from a wettable powder (Example F3, b) of WO 97/34485)] or as an emulsion [prepared from an emulsion concentrate (Example F1 c) of WO 97/34485)] in an optimal dosage (500 l of water/ha). The test plants are then cultivated in the greenhouse under optimum conditions. The test is evaluated 2 to 3 weeks later on a rating scale of 1-9 (1=total damage, 9=no action). Ratings of 1 to 4 (especially 1 to 3) denote good to very good herbicidal action.
# Chenopodium [2] = experiment: Post-emergence herbicidal action (Example B2); set-up: key: 1=total damage; 9=no action; details: 1 kg/ha, post-emergence at 2- to 3-leaf stage, evaluated 2 to 3 weeks later, rating scale 1-9 (1=total damage, 9=no action)
# Source text: as §1
# Stellaria [3] = experiment: Post-emergence herbicidal action (Example B2); details: 1 kg/ha, post-emergence at 2- to 3-leaf stage, evaluated 2 to 3 weeks later, rating scale 1-9 (1=total damage, 9=no action)
# Source text: as §1
# Veronica = experiment: Pre-emergence herbicidal action (Example B1); set-up: key: 1=total damage; 9=no action; details: 1 kg/ha, evaluated 4 weeks later, rating scale 1-9 (1=total damage, 9=no action)
# Experimental: (§2) Pre-emergence Herbicidal Action Monocot and dicot test plants are sown in standard soil in plastic pots. Immediately after sowing, the test substances are sprayed on as an aqueous suspension [prepared from a wettable powder (Example F3, b) of WO 97/34485)] or as an emulsion [prepared from an emulsion concentrate (Example F1 c) of WO 97/34485)] in an optimal dosage (500 l of water/ha). The test plants are then cultivated in the greenhouse under optimum conditions. The test is evaluated 4 weeks later on a rating scale of 1-9 (1=total damage, 9=no action). Ratings of 1 to 4 (especially 1 to 3) denote good to very good herbicidal action.
# Stellaria [4] = experiment: Pre-emergence herbicidal action (Example B1); set-up: key: 1=total damage; 9=no action; details: 1 kg/ha, evaluated 4 weeks later, rating scale 1-9 (1=total damage, 9=no action)
# Experimental: as §2
# Setaria = experiment: Pre-emergence herbicidal action (Example B1); set-up: key: 1=total damage; 9=no action; details: 1 kg/ha, evaluated 4 weeks later, rating scale 1-9 (1=total damage, 9=no action)
# Experimental: as §2
# Panicum = experiment: Pre-emergence herbicidal action (Example B1); set-up: key: 1=total damage; 9=no action; details: 1 kg/ha, evaluated 4 weeks later, rating scale 1-9 (1=total damage, 9=no action)
# Experimental: as §2
# Amaranthus [5] = experiment: Pre-emergence herbicidal action (Example B1); set-up: key: 1=total damage; 9=no action; details: 1 kg/ha, evaluated 4 weeks later, rating scale 1-9 (1=total damage, 9=no action)
# Experimental: as §2
# Digitaria = experiment: Pre-emergence herbicidal action (Example B1); set-up: key: 1=total damage; 9=no action; details: 1 kg/ha, evaluated 4 weeks later, rating scale 1-9 (1=total damage, 9=no action)
# Experimental: as §2
# Chenopodium [6] = experiment: Pre-emergence herbicidal action (Example B1); set-up: key: 1=total damage; 9=no action; details: 1 kg/ha, evaluated 4 weeks later, rating scale 1-9 (1=total damage, 9=no action)
# Experimental: as §2
SMILES,"Postemergence test rating, Amaranthus (Amaranthus [1])","Postemergence test rating, Chenopodium (Chenopodium [2])","Postemergence test rating, Stellaria (Stellaria [3])","Preemergence test rating, Veronica (Veronica)","Preemergence test rating, Stellaria (Stellaria [4])","Preemergence test rating, Setaria (Setaria)","Preemergence test rating, Panicum (Panicum)","Preemergence test rating, Amaranthus (Amaranthus [5])","Preemergence test rating, Digitaria (Digitaria)","Preemergence test rating, Chenopodium (Chenopodium [6])"
COc1ccccc1OCC#Cc1cccc(CC#N)c1 [Compound 1.033],4,2,2,1,1,2,2,1,1,1
COc1cc(C#N)ccc1OCC#Cc1ccc(Cl)cc1 [Compound 1.098],1,1,2,1,1,1,1,1,3,1
COc1cc(C#N)ccc1OCC#Cc1cccc(Br)c1 [Compound 1.104],2,2,3,1,1,4,7,1,7,1
COc1cc(C#N)ccc1OCC#Cc1cccc(CC#N)c1 [Compound 1.109],1,4,2,1,1,6,1,1,1,1
COc1cc(CC#N)ccc1OCC#Cc1cccc(CC#N)c1 [Compound 1.168],–,–,–,4,1,4,1,1,3,2
COc1cc([N+](=O)[O-])ccc1OCC#Cc1cccc(CC#N)c1 [Compound 1.198],1,1,3,1,1,3,1,1,1,1
COc1cc(C#N)ccc1OCC#Cc1cccc(Cl)c1 [Entry 1.095],1,2,2,–,–,–,–,–,–,–
